The record followed here is ChEMBL document CHEMBL1201862, “PubChem BioAssay data set” (2004).

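How tested: cells in 96-well plates exposed to compound for 48 hours at five concentrations. GI50 = concentration required for 50% inhibition of growth.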 The source made the active and inactive calls. Cut-off read from the data, not from the text of the source: active = GI50 up to about 1.1 µM and inactive = higher. Bounds are passed on as bounds.

Some test systems named below: A498; HOP-62; NCI-H460; OVCAR-8; HOP-92; Hs-578T; MCF7; HCT-116; UACC-257; SNB-19; COLO 205; IGROV-1; SN12C; KM12; PC-3; NCI/ADR-RES; SK-MEL-28; LOX IMVI; CCRF-CEM.
What all share (test): DTP human tumour cell line panel, 48 h

As to `FC(F)(F)c1n[nH]c(SCc2ccc(Cl)cc2)n1`, the GI50 is > 100 µM (inactive) in the assay with A498; > 100 µM (inactive) with HOP-62; > 100 µM (inactive) with NCI-H460; > 100 µM (inactive) with OVCAR-8; > 100 µM (inactive) in the assay on HOP-92; 94.8 µM (inactive) in the assay with Hs-578T. Also, the GI50 in the assay on MCF7, in the assay on HCT-116, in the assay with UACC-257, with SNB-19, in the assay with COLO 205 and in the assay with IGROV-1 was > 100 µM (inactive) in each case. In addition, the GI50 in the assay with SN12C, with KM12, in the assay with PC-3, in the assay with NCI/ADR-RES, with SK-MEL-28 and in the assay on LOX IMVI was > 100 µM (inactive) throughout.

For the molecule `O=C1CC2OCC=C3CN4CCC56c7ccccc7N1C5C2C3CC46O` (centres undefined), the GI50 was 48.1 µM (inactive) in the assay on A498; > 100 µM (inactive) with NCI-H460; > 100 µM (inactive) in the assay on OVCAR-8; > 100 µM (inactive) in the assay on HOP-92; > 100 µM (inactive) in the assay with Hs-578T; > 100 µM (inactive) with MCF7. For the same molecule, the GI50 in the assay with HCT-116, with UACC-257, with SNB-19, in the assay with COLO 205, in the assay with CCRF-CEM and with IGROV-1 was > 100 µM (inactive) throughout. Moreover, the GI50 in the assay with SN12C, in the assay on KM12, with PC-3, with NCI/ADR-RES, in the assay on SK-MEL-28 and with LOX IMVI was > 100 µM (inactive) throughout.

As to `CC(C)(N)C(=O)N[C@@H]1C(=O)N2[C@@H]1SC(C)(C)[C@@H]2C(=O)O`, the GI50 in the assay with A498, with HOP-62, with NCI-H460, with OVCAR-8, with HOP-92 and in the assay on Hs-578T was > 100 µM (inactive) throughout. Besides, the GI50 in the assay with MCF7, in the assay with HCT-116, in the assay on UACC-257, in the assay with SNB-19, with COLO 205 and in the assay with IGROV-1 was > 100 µM (inactive) in each case. The GI50 with SN12C, with KM12, in the assay on PC-3, in the assay with NCI/ADR-RES, in the assay with SK-MEL-28 and in the assay on LOX IMVI was > 100 µM (inactive) throughout.

As to `CCOC(=O)/C(C#N)=C(/NS(=O)(=O)c1cc(C)c(Cl)cc1[S-])[n+]1ccc(N(C)C)cc1`, the GI50 was > 100 µM (inactive) in the assay with A498; > 100 µM (inactive) in the assay on HOP-62; > 100 µM (inactive) with NCI-H460; > 100 µM (inactive) in the assay with OVCAR-8; 27.4 µM (inactive) in the assay with HOP-92; > 100 µM (inactive) in the assay with Hs-578T. The GI50 in the assay with MCF7, in the assay with HCT-116, with UACC-257, with SNB-19, with COLO 205 and in the assay with CCRF-CEM was > 100 µM (inactive) throughout. The GI50 in the assay on IGROV-1, in the assay on SN12C, in the assay on KM12, in the assay on PC-3, in the assay on NCI/ADR-RES and in the assay on SK-MEL-28 was > 100 µM (inactive) each time.

For `CCOC(=O)c1nnsc1NC(=O)NN`, the GI50 in the assay with A498, in the assay with HOP-62, in the assay on NCI-H460, with OVCAR-8, in the assay on Hs-578T and in the assay with MCF7 was > 100 µM (inactive) in each case. The GI50 with HCT-116, in the assay with UACC-257, with SNB-19, in the assay on COLO 205, with CCRF-CEM and in the assay with IGROV-1 was > 100 µM (inactive) each time. In addition, the GI50 was > 100 µM (inactive) with SN12C; > 100 µM (inactive) with KM12; > 100 µM (inactive) with PC-3; > 100 µM (inactive) in the assay with NCI/ADR-RES; > 100 µM (inactive) in the assay on SK-MEL-28; 82.2 µM (inactive) in the assay on LOX IMVI.

Regarding `CCOC(=O)C1=CNC(C(=O)OCC)C1c1cccn1-c1ccc(Cl)cc1[N+](=O)[O-]` (centres undefined), the GI50 was 50.7 µM (inactive) with A498; 10 µM (inactive) in the assay on HOP-62; 15.4 µM (inactive) with NCI-H460; 25.8 µM (inactive) with OVCAR-8; 17.6 µM (inactive) in the assay on HOP-92; 15.8 µM (inactive) in the assay with Hs-578T. Besides, the GI50 is 20.6 µM (inactive) in the assay on MCF7; 17.1 µM (inactive) in the assay on HCT-116; 24.4 µM (inactive) in the assay on UACC-257; 31.2 µM (inactive) with COLO 205; 24.5 µM (inactive) with CCRF-CEM; 9.4 µM (inactive) with IGROV-1. Also, the GI50 with SN12C is 18.2 µM (inactive); in the assay on KM12 it was 20.2 µM (inactive); in the assay with PC-3, 20.7 µM (inactive); in the assay on NCI/ADR-RES, 18.5 µM (inactive); in the assay on SK-MEL-28, 26.2 µM (inactive); in the assay with LOX IMVI, 15.9 µM (inactive).

Regarding `Cc1oc2ccccc2c(=O)c1Cn1nnc2ccccc21`, the GI50 in the assay with A498 was 62.1 µM (inactive); in the assay with HOP-62, > 100 µM (inactive); in the assay on NCI-H460, 43.8 µM (inactive); with OVCAR-8, 43.3 µM (inactive); in the assay with HOP-92, 18.6 µM (inactive); with Hs-578T, 83.2 µM (inactive). The GI50 is 21.8 µM (inactive) with MCF7; 59.7 µM (inactive) in the assay with HCT-116; 26.4 µM (inactive) in the assay with UACC-257; > 100 µM (inactive) in the assay on SNB-19; 42.9 µM (inactive) in the assay on COLO 205; 95.1 µM (inactive) with CCRF-CEM. In addition, the GI50 with SN12C was > 100 µM (inactive); in the assay with KM12 it was > 100 µM (inactive); in the assay with PC-3, > 100 µM (inactive); in the assay with NCI/ADR-RES, 60.7 µM (inactive); in the assay on SK-MEL-28, 74 µM (inactive); in the assay on LOX IMVI, 73.3 µM (inactive).

Consider `CS(=O)(=O)N1CC(CI)c2ccc(O)cc21` (centres undefined), for which the GI50 is 2.77 µM (inactive) in the assay with A498; 3.02 µM (inactive) in the assay with HOP-62; 2.35 µM (inactive) with NCI-H460; 2.89 µM (inactive) in the assay with OVCAR-8; 2.18 µM (inactive) with HOP-92; 3.41 µM (inactive) with Hs-578T. Moreover, the GI50 with MCF7 is 0.925 µM (active); in the assay on HCT-116 it was 2.98 µM (inactive); in the assay with UACC-257, 3.36 µM (inactive); with COLO 205, 2.88 µM (inactive); in the assay with CCRF-CEM it was 0.807 µM (active); with IGROV-1, 3.98 µM (inactive). The GI50 is 3.44 µM (inactive) in the assay with SN12C; 3.59 µM (inactive) with KM12; 2.6 µM (inactive) in the assay with PC-3; 2.75 µM (inactive) with NCI/ADR-RES; 3.23 µM (inactive) with SK-MEL-28; 3.21 µM (inactive) in the assay on LOX IMVI.

With `Cc1ccc(Nc2nnc3n2S(=O)(=O)c2cc(C)c(Cl)cc2S3)cc1`, the GI50 in the assay on A498 was 15.4 µM (inactive); with HOP-62, 6.35 µM (inactive); with NCI-H460 it was 7.23 µM (inactive); in the assay with OVCAR-8 it was 12.6 µM (inactive); with HOP-92 it was 4.89 µM (inactive); in the assay on Hs-578T, 2.89 µM (inactive). Besides, the GI50 with MCF7 is 5.26 µM (inactive); with HCT-116 it was 6.37 µM (inactive); in the assay on UACC-257 it was 34.5 µM (inactive); with IGROV-1, 4.4 µM (inactive); in the assay on KM12, 6.56 µM (inactive); with PC-3 it was 4.39 µM (inactive). Also, the GI50 in the assay on NCI/ADR-RES was 16.1 µM (inactive); with SK-MEL-28, 19.6 µM (inactive); with LOX IMVI, 6.14 µM (inactive).

As for `COc1ccc2c(c1)-c1c(c3cc(OC)ccc3n1CCN1CCOCC1)CC2`, the GI50 in the assay with A498 is 46.7 µM (inactive); in the assay on HOP-62, 42.6 µM (inactive); in the assay on NCI-H460, 22.8 µM (inactive); in the assay on OVCAR-8 it was 28.6 µM (inactive); in the assay on HOP-92, 24.4 µM (inactive); with Hs-578T it was 16.6 µM (inactive). In addition, the GI50 with MCF7 was 29 µM (inactive); in the assay on HCT-116 it was 27.2 µM (inactive); in the assay with UACC-257 it was 33.4 µM (inactive); with COLO 205 it was 20 µM (inactive); with CCRF-CEM it was 11.5 µM (inactive); in the assay with IGROV-1, 18.1 µM (inactive). Further, the GI50 in the assay with SN12C is 62.2 µM (inactive); with KM12, 22.6 µM (inactive); in the assay on PC-3 it was 24.2 µM (inactive); in the assay with NCI/ADR-RES, 20.7 µM (inactive); in the assay with SK-MEL-28, 57.1 µM (inactive).

Take `COC1=CC(=O)N(C(=O)C2CSC(C(CO)NC(=O)c3csc(/C=N/O)n3)=N2)C1` (centres undefined): the GI50 in the assay with A498 is > 100 µM (inactive); in the assay on HOP-62, > 100 µM (inactive); in the assay on NCI-H460, > 100 µM (inactive); in the assay with OVCAR-8, > 100 µM (inactive); in the assay with Hs-578T it was 15.9 µM (inactive); in the assay with MCF7 it was > 100 µM (inactive). The GI50 with HCT-116, in the assay with UACC-257, in the assay with SNB-19, in the assay with COLO 205, in the assay on CCRF-CEM and with IGROV-1 was > 100 µM (inactive) throughout. For the same molecule, the GI50 in the assay with SN12C, in the assay on KM12, in the assay with PC-3, in the assay with NCI/ADR-RES, with SK-MEL-28 and with LOX IMVI was > 100 µM (inactive) throughout.
